In article PMC6199309, “A therapeutic approach to pantothenate kinase associated neurodegeneration” (Nature Communications, 2018):
≈ marks a conversion by molar mass, not a printed value.

Experiments:
[1] = molecular target: T1, MRCKA (Homo sapiens, UniProt Q5VT25); assay: KINOMEscan; format: binding; conditions: read-out: %Ctrl @ 10000nM
T1 construct: purchased DiscoverX KINOMEscan

[2] = PAMPA-BBB; format: in vitro ADME; conditions: BBB = Blood Brain Barrier, read-out: PAMPA-BBB, Avg Pe
[3] = tested on: C3A cells; assay: Intracellular CoA and metabolite levels in C3A cells; format: cell-based, human; conditions: 24 h
Experimental: HEK293T cells (ATCC, #CRL-3216) were maintained in Dulbecco’s modified Eagle’s medium (DMEM, Biowhittaker/Lonza) supplemented with 10% FCS. Human C3A [HepG2/C3A, derivative of HepG2] cells (ATCC #CRL-10741) were purchased from ATCC® and maintained in Eagle’s minimum Essential medium (ATCC) supplemented with 2 mM glutamine, 10% fetal bovine serum (FCS, Altanta Biologicals), 50 U/ml penicillin and […] streptomycin. Both cell lines were confirmed to be mycoplasma-free. […]. […] After 24 h of treatment (total 48 h after transfection) the cells were washed with PBS and harvested and subjected to either total CoA or acetyl-CoA determinations.
Prior to labeling, cells were seeded at a density of 2–3 × 10^6 in 60 mm-dishes in reconstituted DMEM without added pantothenate and allowed to adhere overnight. The labeling was initiated by replacing the medium with 2 ml of labeling medium containing 0.1% dimethylsulfoxide (DMSO; control) or 10 μM of the compound in 0.1% DMSO. Cells were incubated for 24 h, the labeling medium was removed, and cells were washed with phosphate buffered saline and lysed by sonication in 20 mM Tris-HCl, pH 7.5, 2 mM DTT, 5 mM EDTA and 50 mM NaF. The lysates were fractionated by thin-layer chromatography after removal of the cell debris by centrifugation. The samples were spotted on Silica Gel H plates and resolved with 95% ethanol:28% ammonium hydroxide (4/1, v/v). The distribution of radioactivity on the plate was quantified using a Bioscan Imager (Bioscan, Inc.) together with quantification of the total cellular radioactivity determined by a Liquid Scintillation Analyzer (PerkinElmer Tri-Carb 2910 TR). Triplicate culture dishes were labeled for each group plus a dish for each group for determination of cell counts and viability using a Nucleocounter (New Brunswick Scientific) according to the manufacturer’s directions. The experiments were repeated twice in duplicate and the data represented is an overall average ± SEM.
Cultured cells or frozen tissues were resuspended in 2 ml cold water to which 500 μl of 0.25 M KOH was added, derivatized with monobromobimane (mBBr, Life technologies) and quantified by HPLC[23]. For acetyl-CoA determinations, C3A cells were resuspended in 1 ml water, added to 2 ml of methanol and 1 ml chloroform, and incubated on ice for 15 min. Chloroform 1.5 ml, 1.2 ml water and 30 pmol of [^13C2]acetyl-CoA (Sigma) was added, and centrifuged at 2000×g for 10 min. The top layer was loaded on a 2-(2-pyridyl) ethyl solid phase extraction column which was equilibrated with 1 ml 50% methanol/2% acetic acid. The column was washed twice with 1 ml 50% methanol/2% acetic acid and 1 ml water. CoA and thioesters were eluted twice with 1 ml 95% ethanol containing 50 mM ammonium hydroxide. Samples were resuspended in 90% methanol containing 15 mM ammonium hydroxide.
The mBBr derivatized sample was fractionated by reverse-phase HPLC using a Gemini C18 3 μm column (150 × 4.60 mm) from Phenomenex. The chromatography system was a Waters e2695 separation module with a UV/Vis and fluorescence detector and controlled by Empower 3 software. Solvent A was 50 mM potassium phosphate pH 4.6, and solvent B was 100% acetonitrile. Twenty microliters of sample was injected onto the column, and the flow rate was 0.5 ml/min. The HPLC program was the following: starting solvent mixture of 90% A/10% B, 0–2 min isocratic with 10% B, 2–6 min linear gradient from 10% B to 15% B, 6–18 min concave gradient from 15% B to 40% B, 18–23 min isocratic with 40% B, 23–25 min linear gradient from 40 to 10%, and 25–30 min isocratic with 10% B. The UV/vis detector was set at 393 nm, and the fluorescence detector was set with excitation at 393 nm and emission at 470 nm. […]

[4] = molecular target: T2, MARK2 (Homo sapiens, UniProt Q7KZI7); assay: KINOMEscan; format: binding; conditions: read-out: %Ctrl @ 10000nM
T2 construct: purchased DiscoverX KINOMEscan

[5] = molecular target: T3, ERBB4 (Homo sapiens, UniProt Q15303); assay: KINOMEscan; format: binding; conditions: read-out: %Ctrl @ 10000nM
T3 construct: purchased DiscoverX KINOMEscan

[6] = molecular target: T4, SNARK (Homo sapiens, UniProt Q9H093); assay: KINOMEscan; format: binding; conditions: read-out: %Ctrl @ 10000nM
T4 construct: purchased DiscoverX KINOMEscan

[7] = molecular target: T5, DMPK (Homo sapiens, UniProt Q09013); assay: KINOMEscan; format: binding; conditions: read-out: %Ctrl @ 10000nM
T5 construct: purchased DiscoverX KINOMEscan

[8] = molecular target: T6, MST3 (Homo sapiens, UniProt Q9Y6E0); assay: KINOMEscan; format: binding; conditions: read-out: %Ctrl @ 10000nM
T6 construct: purchased DiscoverX KINOMEscan

[9] = molecular target: T7, PKMYT1 (Homo sapiens, UniProt Q99640); assay: KINOMEscan; format: binding; conditions: read-out: %Ctrl @ 10000nM
T7 construct: purchased DiscoverX KINOMEscan

[10] = Solubility at pH 7.4
[11] = molecular target: T8, RIOK3 (Homo sapiens, UniProt O14730); assay: KINOMEscan; format: binding; conditions: read-out: %Ctrl @ 10000nM
T8 construct: purchased DiscoverX KINOMEscan

[12] = molecular target: T9, ERK5 (Homo sapiens, UniProt Q13164); assay: KINOMEscan; format: binding; conditions: read-out: %Ctrl @ 10000nM
T9 construct: purchased DiscoverX KINOMEscan

[13] = molecular target: T10, MAP4K5 (Homo sapiens, UniProt Q9Y4K4); assay: KINOMEscan; format: binding; conditions: read-out: %Ctrl @ 10000nM
T10 construct: purchased DiscoverX KINOMEscan

[14] = molecular target: T11, MAK (Homo sapiens, UniProt P20794); assay: KINOMEscan; format: binding; conditions: read-out: %Ctrl @ 10000nM
T11 construct: purchased DiscoverX KINOMEscan

[15] = molecular target: T12, HIPK4 (Homo sapiens, UniProt Q8NE63); assay: KINOMEscan; format: binding; conditions: read-out: %Ctrl @ 10000nM
T12 construct: purchased DiscoverX KINOMEscan

[16] = molecular target: T13, FGFR2 (Homo sapiens, UniProt P21802); assay: KINOMEscan; format: binding; conditions: read-out: %Ctrl @ 10000nM
T13 construct: purchased DiscoverX KINOMEscan

[17] = molecular target: T14, CDK4-cyclinD3 (Homo sapiens, UniProt P11802); assay: KINOMEscan; format: binding; conditions: read-out: %Ctrl @ 10000nM
T14 construct: purchased DiscoverX KINOMEscan

[18] = molecular target: T15, RIPK5 (Homo sapiens, UniProt Q6XUX3); assay: KINOMEscan; format: binding; conditions: read-out: %Ctrl @ 10000nM
T15 construct: purchased DiscoverX KINOMEscan

[19] = molecular target: T16, RSK2(Kin.Dom.2-C-terminal) (Homo sapiens, UniProt P51812); assay: KINOMEscan; format: binding; conditions: read-out: %Ctrl @ 10000nM
T16 construct: RSK2(Kin.Dom.2-C-terminal); purchased DiscoverX KINOMEscan

[20] = molecular target: T17, NDR1 (Homo sapiens, UniProt Q15208); assay: KINOMEscan; format: binding; conditions: read-out: %Ctrl @ 10000nM
T17 construct: purchased DiscoverX KINOMEscan

T9 sequence (Q13164 whole entry): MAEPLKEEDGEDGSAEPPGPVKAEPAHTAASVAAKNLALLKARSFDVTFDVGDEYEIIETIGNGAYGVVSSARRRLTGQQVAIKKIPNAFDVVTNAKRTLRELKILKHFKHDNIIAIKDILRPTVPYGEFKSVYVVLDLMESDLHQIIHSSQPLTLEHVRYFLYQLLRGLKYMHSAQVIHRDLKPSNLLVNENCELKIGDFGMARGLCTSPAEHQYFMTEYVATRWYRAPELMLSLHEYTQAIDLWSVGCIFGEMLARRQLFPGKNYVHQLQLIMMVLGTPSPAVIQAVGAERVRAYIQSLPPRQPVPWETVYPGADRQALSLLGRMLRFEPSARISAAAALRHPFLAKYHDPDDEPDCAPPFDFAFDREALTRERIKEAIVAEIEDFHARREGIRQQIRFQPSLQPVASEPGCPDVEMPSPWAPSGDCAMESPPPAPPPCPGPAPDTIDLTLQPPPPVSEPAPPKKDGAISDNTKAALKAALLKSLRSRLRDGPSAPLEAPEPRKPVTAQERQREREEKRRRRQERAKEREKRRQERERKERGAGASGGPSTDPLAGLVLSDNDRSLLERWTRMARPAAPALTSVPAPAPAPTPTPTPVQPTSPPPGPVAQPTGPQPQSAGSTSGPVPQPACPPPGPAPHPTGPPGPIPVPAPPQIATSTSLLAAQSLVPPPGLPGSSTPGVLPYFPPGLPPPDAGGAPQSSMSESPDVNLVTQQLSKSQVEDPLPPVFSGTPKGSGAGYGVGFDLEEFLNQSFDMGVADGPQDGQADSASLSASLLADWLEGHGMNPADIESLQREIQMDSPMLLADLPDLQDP
T10 sequence (Q9Y4K4 whole entry): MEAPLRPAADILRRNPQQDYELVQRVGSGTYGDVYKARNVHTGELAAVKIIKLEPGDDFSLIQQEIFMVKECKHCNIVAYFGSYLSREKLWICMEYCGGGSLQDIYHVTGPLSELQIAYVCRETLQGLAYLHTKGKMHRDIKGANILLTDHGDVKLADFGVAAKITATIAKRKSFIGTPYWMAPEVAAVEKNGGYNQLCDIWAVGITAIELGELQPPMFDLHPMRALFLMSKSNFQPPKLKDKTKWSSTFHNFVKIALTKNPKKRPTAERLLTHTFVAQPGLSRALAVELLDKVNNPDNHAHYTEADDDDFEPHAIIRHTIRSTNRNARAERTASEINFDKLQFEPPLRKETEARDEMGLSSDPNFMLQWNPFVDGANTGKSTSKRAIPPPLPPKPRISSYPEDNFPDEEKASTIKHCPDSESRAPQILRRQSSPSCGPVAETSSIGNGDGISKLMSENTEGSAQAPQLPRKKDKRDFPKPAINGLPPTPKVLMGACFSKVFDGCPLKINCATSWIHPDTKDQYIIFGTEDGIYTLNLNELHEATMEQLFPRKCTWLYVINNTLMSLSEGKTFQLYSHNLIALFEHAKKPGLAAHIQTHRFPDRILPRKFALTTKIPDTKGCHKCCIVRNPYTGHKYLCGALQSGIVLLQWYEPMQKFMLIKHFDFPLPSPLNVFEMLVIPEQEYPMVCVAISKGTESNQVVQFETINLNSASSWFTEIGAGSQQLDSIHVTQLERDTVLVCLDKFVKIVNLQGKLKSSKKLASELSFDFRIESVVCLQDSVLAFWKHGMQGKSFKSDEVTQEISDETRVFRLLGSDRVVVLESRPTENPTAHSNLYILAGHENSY
T15 sequence (Q6XUX3 whole entry): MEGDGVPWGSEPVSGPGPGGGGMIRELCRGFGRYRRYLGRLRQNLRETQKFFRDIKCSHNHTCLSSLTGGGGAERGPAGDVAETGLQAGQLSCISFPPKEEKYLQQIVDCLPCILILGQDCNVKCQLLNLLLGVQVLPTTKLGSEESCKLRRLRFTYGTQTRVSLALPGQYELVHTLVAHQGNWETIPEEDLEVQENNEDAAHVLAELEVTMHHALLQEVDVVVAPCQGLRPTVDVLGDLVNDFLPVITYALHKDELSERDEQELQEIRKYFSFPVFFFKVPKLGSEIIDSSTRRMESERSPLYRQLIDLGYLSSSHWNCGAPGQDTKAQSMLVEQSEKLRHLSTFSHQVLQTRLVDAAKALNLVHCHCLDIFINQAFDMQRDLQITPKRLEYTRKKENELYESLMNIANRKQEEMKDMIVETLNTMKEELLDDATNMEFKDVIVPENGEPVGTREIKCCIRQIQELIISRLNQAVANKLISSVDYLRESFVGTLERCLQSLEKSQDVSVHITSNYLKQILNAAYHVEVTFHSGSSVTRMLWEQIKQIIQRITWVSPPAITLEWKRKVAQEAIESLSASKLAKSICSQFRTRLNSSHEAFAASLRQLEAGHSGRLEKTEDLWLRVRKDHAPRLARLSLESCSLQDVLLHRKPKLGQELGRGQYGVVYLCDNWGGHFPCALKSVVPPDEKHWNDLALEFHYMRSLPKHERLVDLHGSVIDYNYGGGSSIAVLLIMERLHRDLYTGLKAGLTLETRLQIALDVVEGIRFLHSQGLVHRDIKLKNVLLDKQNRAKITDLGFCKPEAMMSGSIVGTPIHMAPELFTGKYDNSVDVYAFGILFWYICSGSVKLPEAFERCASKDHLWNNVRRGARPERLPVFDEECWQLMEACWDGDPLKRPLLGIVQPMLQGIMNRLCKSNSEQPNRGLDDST
T6 sequence (Q9Y6E0 whole entry): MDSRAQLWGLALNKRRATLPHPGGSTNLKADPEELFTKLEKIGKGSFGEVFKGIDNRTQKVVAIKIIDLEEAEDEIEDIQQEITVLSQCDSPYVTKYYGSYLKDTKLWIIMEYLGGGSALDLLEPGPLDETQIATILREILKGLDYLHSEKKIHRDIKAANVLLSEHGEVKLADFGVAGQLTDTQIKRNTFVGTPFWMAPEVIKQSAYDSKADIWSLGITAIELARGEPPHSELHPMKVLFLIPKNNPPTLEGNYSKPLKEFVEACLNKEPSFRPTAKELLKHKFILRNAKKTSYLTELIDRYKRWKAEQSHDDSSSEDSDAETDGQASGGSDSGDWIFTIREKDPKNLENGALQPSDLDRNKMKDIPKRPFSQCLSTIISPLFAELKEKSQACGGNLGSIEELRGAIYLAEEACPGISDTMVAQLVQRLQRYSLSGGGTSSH
T11 sequence (P20794 whole entry): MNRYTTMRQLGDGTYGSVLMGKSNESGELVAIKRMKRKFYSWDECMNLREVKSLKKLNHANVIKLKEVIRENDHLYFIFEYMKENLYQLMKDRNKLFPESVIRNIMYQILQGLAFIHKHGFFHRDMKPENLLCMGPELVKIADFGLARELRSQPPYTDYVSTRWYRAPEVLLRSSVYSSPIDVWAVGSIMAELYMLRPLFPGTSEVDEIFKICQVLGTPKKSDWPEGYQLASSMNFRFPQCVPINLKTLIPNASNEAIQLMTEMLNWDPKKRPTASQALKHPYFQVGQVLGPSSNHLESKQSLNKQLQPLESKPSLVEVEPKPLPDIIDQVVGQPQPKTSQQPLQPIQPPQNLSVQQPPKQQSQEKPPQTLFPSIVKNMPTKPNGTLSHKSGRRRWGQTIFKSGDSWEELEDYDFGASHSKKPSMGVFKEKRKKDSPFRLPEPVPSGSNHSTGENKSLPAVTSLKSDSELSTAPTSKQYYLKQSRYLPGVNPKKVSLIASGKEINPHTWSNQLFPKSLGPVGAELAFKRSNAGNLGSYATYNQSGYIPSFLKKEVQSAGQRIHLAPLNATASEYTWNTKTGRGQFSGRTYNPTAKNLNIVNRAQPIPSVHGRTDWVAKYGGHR
T5 sequence (Q09013 whole entry): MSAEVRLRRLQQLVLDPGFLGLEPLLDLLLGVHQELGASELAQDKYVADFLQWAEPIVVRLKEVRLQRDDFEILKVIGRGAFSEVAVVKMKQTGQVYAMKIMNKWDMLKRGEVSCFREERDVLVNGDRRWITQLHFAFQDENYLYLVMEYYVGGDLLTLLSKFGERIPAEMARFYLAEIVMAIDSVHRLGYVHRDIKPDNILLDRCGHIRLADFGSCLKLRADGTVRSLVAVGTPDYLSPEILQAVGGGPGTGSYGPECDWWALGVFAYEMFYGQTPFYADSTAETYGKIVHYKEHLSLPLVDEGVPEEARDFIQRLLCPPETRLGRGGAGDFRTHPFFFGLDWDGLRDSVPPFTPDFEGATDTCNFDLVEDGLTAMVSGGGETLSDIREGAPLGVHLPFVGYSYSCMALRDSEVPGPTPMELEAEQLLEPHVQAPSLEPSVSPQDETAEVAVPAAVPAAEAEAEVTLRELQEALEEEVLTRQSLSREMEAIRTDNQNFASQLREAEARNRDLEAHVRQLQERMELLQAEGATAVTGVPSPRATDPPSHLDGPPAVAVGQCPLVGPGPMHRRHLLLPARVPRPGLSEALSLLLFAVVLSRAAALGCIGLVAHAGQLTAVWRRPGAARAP
T8 sequence (O14730 whole entry): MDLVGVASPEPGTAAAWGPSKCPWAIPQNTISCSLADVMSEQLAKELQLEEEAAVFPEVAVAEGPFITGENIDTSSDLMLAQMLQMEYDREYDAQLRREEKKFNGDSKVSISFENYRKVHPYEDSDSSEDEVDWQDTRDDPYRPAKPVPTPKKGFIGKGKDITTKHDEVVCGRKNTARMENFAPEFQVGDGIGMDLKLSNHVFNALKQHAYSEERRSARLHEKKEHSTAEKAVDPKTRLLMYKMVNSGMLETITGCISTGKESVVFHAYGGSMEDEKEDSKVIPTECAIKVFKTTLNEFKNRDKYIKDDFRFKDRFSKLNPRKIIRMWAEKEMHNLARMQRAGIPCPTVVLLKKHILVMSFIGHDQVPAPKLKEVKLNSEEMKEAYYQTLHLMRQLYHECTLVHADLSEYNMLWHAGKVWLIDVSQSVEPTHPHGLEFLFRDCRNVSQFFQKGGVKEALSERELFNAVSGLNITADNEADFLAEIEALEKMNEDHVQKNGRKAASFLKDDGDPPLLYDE

## CC(C)c1ccc(CC(=O)N2CCN(c3ccc(C#N)nn3)CC2)cc1 [PZ-2891, 6-(4-(2-(4-isopropylphenyl)acetyl)piperazin-1-yl)pyridazine-3-carbonitrile]
[1]
  remaining binding at 10 µM: 92%
[2]
  Papp: 52 ×10⁻⁶ cm/s
[3]; 10 μM, C3A cells
  intracellular CoA ([3H]pantothenate labeling): increased the amount of intracellular CoA
  intracellular pantothenate ([3H]pantothenate labeling): lowered intracellular pantothenate
[3]; 10 μM, mass spectrometry
  acetyl-CoA levels in C3A cells: higher acetyl-CoA levels
[3]; increasing concentrations (20 and 50 μM less activating)
  total intracellular CoA levels in C3A cells: CoA progressively increased up to 10 μM
[4]
  remaining binding at 10 µM: 70%
[5]
  remaining binding at 10 µM: 100%
[6]
  remaining binding at 10 µM: 69%
[7]
  remaining binding at 10 µM: 89%
[8]
  remaining binding at 10 µM: 73%
[9]
  remaining binding at 10 µM: 100%
[10]
  solubility: 23 µM (≈ 8.04 µg/mL)
[11]
  remaining binding at 10 µM: 100%
[12]
  remaining binding at 10 µM: 93%
[13]
  remaining binding at 10 µM: 100%
[14]
  remaining binding at 10 µM: 69%
[15]
  remaining binding at 10 µM: 94%
[16]
  remaining binding at 10 µM: 100%
[17]
  remaining binding at 10 µM: 71%
[18]
  remaining binding at 10 µM: 77%
[19]
  remaining binding at 10 µM: 89%
[20]
  remaining binding at 10 µM: 75%
